Read-outs that look alike come from different tables or passages of the source.
Columns and labels:
UMUC-3 cell lines = test: Drug treatments of cancer cell clusters in 3D model with bacteria outside tissue; cell viability test (Hoechst/Calcein-AM); assay type: cell-based; settings: Homo sapiens, UMUC3, 24 h; for IC50: 3D model with bacteria outside tissue, 24 hrs of incubation, read-out: IC50 of doxorubicin for cancer cells
Method: 70% (v/v) ethanol (EtOH; UNI-CHEM) was added to channels to sterilize the platform and remove air bubbles. 1× phosphate-buffered saline (PBS; Gibco, #10010049, USA) was used to remove residual EtOH, and the microwell layer was then coated with 50 μL of 2.5% bovine serum albumin (v/v) (BSA) (Sigma-Aldrich, #A9418-5G, Germany) to prevent cell adhesion to the channels. The capacity of each channel was 150 μL. UMUC-3 cell clusters in the microchannels could be stained in situ with Hoechst dye (Invitrogen, #H1399, USA) for 30 min to visualize cell nuclei or biofilm. Imaging and downstream analysis were carried out in situ after 1 h, 9 h, and 24 h of infection. UMUC-3 cell clusters without bacteria were used as negative controls. The bacterial suspension was centrifuged for 10,000 rpm. LB supernatant was removed and replaced with antibiotic-free MEM a (10% supplemented with FBS) at the required multiplicity of infection (MOI) rates (500:1 or 1:1). Control groups corresponding to 0 h time points were obtained before the introduction of bacteria.
Nuclear dye Hoechst (blue) and Calcein-AM (green) Invitrogen, #C3100MP, USA) were added to the channels at a final concentration of 20 μM. Clusters were imaged after 30 min incubation at 37° C. Using ImageJ for analysis. We enumerated only cancer cells within the area range of 25-250 μm^2 and circularity 0.3-1.0 to ensure that smaller bacteria were excluded from the count.
UMUC-3 cells were seeded into a PIEB device at 35×10^3 cells/channel concentration and cultured at 37° C. overnight. Then UPEC was suspended in PBS and added into each channel at the MOI of 1:1. Then the bacteria and cells were incubated at 37° C. for 1 h in the device. TBPP was added into the channel and followed by light treatment for 30 mins. The medium was replaced by fresh RPMI with DOX (Sigma-Aldrich, #D1515-10MG, 25316-40-9, China). After 24 h incubation, cells were dyed with Hoechst and Calcein AM for imaging.

[1] = ROS generation test with DCFH-DA under white light; settings: photosensitizer 10 μM, DCFH-DA 40 μM
Method: Dichlorodihydrofluorescein diacetate (DCFH-DA, Sigma-Aldrich #D6665-5G, 76-54-0, China) was used as the ROS indicator. 40 μL of DCFH-DA stock solution (1 mM) was added into 2 mL of different photosensitizers suspension (10 μM) including TBPPs and chlorin e6 (Sigma-Aldrich #COM448659756-100MG, QC-6466, USA). Then white light ([…]) was used to irradiate, and the emission of DCFD-DA at 525 nm was recorded at various irradiation times.

UPEC = test: Fluorescent imaging of bacteria by TBPP; assay type: cell-based, uropathogenic E. coli (UPEC) strain UTI89
Method: A single colony of UPEC on solid culture medium was transferred to 5 mL of Luria-Bertani (LB) medium and incubated at 37° C. for overnight. After reaching the logarithmic phase, bacteria were harvested by centrifuging at 10000 g for 3 min. After removing the supernatant, bacteria were diluted in ABTGC (ABT minimal medium supplemented with […]) to 1×10^5/mL. 300 μL of bacteria solution were added to the culture dish. Then, 300 μL dye solution in saline at appropriate concentration was added into the culture dish for 1 h and directly imaged by Leica TCS SP8 MP confocal microscope (Germany).

[2] = system: human bladder carcinoma cell line (UMUC-3); test: Cancer cell staining by TBPP; assay type: cell-based; settings: TBPP 1 μM
Method: The human bladder carcinoma cell line UMUC-3 (CRL-1749, ATCC) were cultured in modified Minimum Essential Medium Alpha (MEM a; Gibco, #12561049, USA) supplemented with 10% (v/v) fetal bovine serum (FBS; Gibco, #10270106, USA) and 1% (v/v) penicillin-streptomycin (Gibco, #15140122, USA) at 37° C. with 5% CO2 in a humidified environment. Cells were cultured in sterile T25 or T75 flasks (Jet BIOFIL, China), with growth media replaced every 48 h. Cultures were passaged at 80% confluence.
[…] of TBPP and 10 μM of Calcein-AM were added to the channels. Clusters were then imaged after 60 min incubation at 37° C. Z-stack were recorded via confocal microscope.

[3] = Photophysical properties (absorption and photoluminescence spectra); assay type: physicochemical
Method: All chemicals and reagents were commercially available and used as received without further purification. ^1H and ^13C NMR spectra were measured on a Bruker ARX 400 NMR spectrometer using CDCl3 and DMSO-d6 as solvents, and tetramethylsilane (TMS; 6=0 ppm) was chosen as the internal reference. High-resolution mass spectra (HRMS) were obtained on a Finnigan MAT TSQ 7000 mass spectrometer system operated in a matrix-assisted laser desorption and ionization-time-of-flight (MALDI-TOF) mode. Absorption spectra were measured on a Milton Roy Spectronic 3000 array spectrophotometer. Steady-state photoluminescence (PL) spectra were measured on a PerkinElmer spectrofluorometer LS 55.

SMILES	viability at 5 µM (UMUC-3 cell lines; read-out: viability of cancer cells) [%]	ROS generation (change of DCFH-DA fluorescence I/I0 with irradiation time) [1]	fluorescent signal of UPEC biofilm (UPEC; TBPP 1 μM, biofilm compared with planktonic bacteria)	NIR fluorescent signal on UPEC (monolayer model) (UPEC; TBPP 10 μM, 1 h to 24 h)	fluorescence in cancer cell staining [2]	Stokes shift (Δv) [3] [nm]	absorption maximum ([3]; in DMSO, 10 μM) [nm]	emission maximum ([3]; in DMSO, 10 μM) [nm]	IC50 (UMUC-3 cell lines; doxorubicin alone) [µM]	IC50 (UMUC-3 cell lines; doxorubicin combined with TBPP) [µM]
C[N+](C)(C)CCC[n+]1ccc(-c2ccc(-c3ccc(N(c4ccccc4)c4ccccc4)cc3)c3nsnc23)cc1.[Br-].[Br-] [TBPP, 4-(7-(4-(diphenylamino)phenyl)benzo[c][1,2,5]thiadiazol-4-yl)-1-(3-(trimethylammonio)propyl)pyridin-1-ium bromide]	~60	much greater change than commercial photosensitizer, Ce6	much higher signal than the planktonic bacteria	targeting ability to UPEC	negligible fluorescence	198	492	690		
COc1cccc2c1C(=O)c1c(O)c3c(c(O)c1C2=O)C[C@@](O)(C(=O)CO)C[C@@H]3O[C@H]1C[C@H](N)[C@H](O)[C@H](C)O1 [doxorubicin]									8	5
